Patent publication US20090326003A1, “PYRAZOLO (3, 4-B) PYRIDINE DERIVATIVES AS PDE4 INHIBITORS” (priority 2006, published 2009)

Target: T1, PDE4B (human recombinant) (Homo sapiens, UniProt Q07343)
T1 construct: made in house
Assay: PDE4B inhibition, fluorescence polarisation (FP) and/or SPA assay
Format: biochemical
Details: n=1 or average of 2 or more readings, accuracy ±about 0.5 log unit, read-out: PDE4B pIC50 (generally in FP assay) (±about 0.5) (converted)
How it was run: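 Human recombinant PDE4B (yeast-expressed, HSPDE4B2B variant) preincubated with compound 10-30 min at ambient temperature; SPA with ~10 nM [3H]cAMP, 1 h, Tris-HCl pH 7.5, ≤20% hydrolysis; or IMAP FP with ~40 nM fluorescein-cAMP, Tris-HCl pH 7.2. pIC50 from 10-point curves (1.5 nM-30 uM).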

T1 sequence (Q07343 1-564 isoform Q07343-2): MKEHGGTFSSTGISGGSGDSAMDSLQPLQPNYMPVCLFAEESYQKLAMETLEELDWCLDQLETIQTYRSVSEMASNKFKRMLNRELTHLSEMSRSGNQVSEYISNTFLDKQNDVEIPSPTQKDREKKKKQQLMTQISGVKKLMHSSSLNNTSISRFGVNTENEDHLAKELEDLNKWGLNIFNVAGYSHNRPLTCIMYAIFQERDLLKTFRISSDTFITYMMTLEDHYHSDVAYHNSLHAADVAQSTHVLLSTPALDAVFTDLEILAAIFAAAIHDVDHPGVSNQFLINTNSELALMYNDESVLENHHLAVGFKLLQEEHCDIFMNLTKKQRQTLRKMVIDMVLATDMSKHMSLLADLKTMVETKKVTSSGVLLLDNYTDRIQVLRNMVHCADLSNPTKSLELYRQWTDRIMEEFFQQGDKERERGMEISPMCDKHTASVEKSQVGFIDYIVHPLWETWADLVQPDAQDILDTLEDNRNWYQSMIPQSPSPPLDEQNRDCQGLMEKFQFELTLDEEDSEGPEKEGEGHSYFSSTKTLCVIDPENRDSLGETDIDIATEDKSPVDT

Row | Structure (SMILES) | IC50
1 | CCc1nc2c(cnn2CC)c(NC2CCOCC2)c1CNC(=O)c1ccc(-c2ccc(C(=O)NCc3c(CC)nc4c(cnn4CC)c3NC3CCOCC3)cc2)cc1 [Example 23, N,N′-bis{[1,6-diethyl-4-(tetrahydro-2H-pyran-4-ylamino)-1H-pyrazolo[3,4-b]pyridin-5-yl]methyl}-4,4′-biphenyldicarboxamide] | ~0.158 nM
2 | CCn1ncc2c(NC3CCOCC3)c(CNC(=O)c3cccc(-c4cccc(C(=O)NCc5c(C)nc6c(cnn6CC)c5NC5CCOCC5)c4)c3)c(C)nc21 [Example 29, N,N′-bis{[1-ethyl-6-methyl-4-(tetrahydro-2H-pyran-4-ylamino)-1H-pyrazolo[3,4-b]pyridin-5-yl]methyl}-3,3′-biphenyldicarboxamide] | ~0.1 nM
3 | CCc1nc2c(cnn2CC)c(NC2CCOCC2)c1CNC(=O)c1ccc(C(=O)NCc2c(CC)nc3c(cnn3CC)c2NC2CCOCC2)o1 [Example 35, N,N′-bis{[1,6-diethyl-4-(tetrahydro-2H-pyran-4-ylamino)-1H-pyrazolo[3,4-b]pyridin-5-yl]methyl}-2,5furandicarboxamide] | ~0.0398 nM
